Experimental findings from article PMC7897990, “TriTOX: A novel Trichomonas vaginalis assay platform for high-throughput screening of compound libraries” (International Journal for Parasitology: Drugs and Drug …, 2021) are described below.

This experiment deals with Trichomonas vaginalis G3 trophozoites. The following applies: HTS, parasite screen at 1 µg/mL; for T.vaginalis_%inb_Rep1: replicate 1; for T.vaginalis_Absorbance_Rep1: replicate 1, raw absorbance; for T.vaginalis_%inb_Rep2: replicate 2; for T.vaginalis_Absorbance_Rep2: replicate 2, raw absorbance.

Structures are written as SMILES.

Take `C=C1CC[C@H]2C(C)(C)CCC[C@]2(C)[C@H]1C[C@@]12C[C@H]3C(=O)N[C@@H](CC(C)C)C(=O)N3[C@@H]1Nc1ccccc12` [Drimentine A]: the T.vaginalis_%inb_Rep1 was 15.46%, the T.vaginalis_Absorbance_Rep1 is 0.996, the T.vaginalis_%inb_Rep2 was 4.92% and the T.vaginalis_Absorbance_Rep2 is 0.688.
In the case of `C=C1CC[C@H]2C(C)(C)CCC[C@]2(C)[C@H]1C[C@@]12C[C@H]3C(=O)N4CCC=C4C(=O)N3[C@@H]1Nc1ccccc12` [Drimentine B], the T.vaginalis_%inb_Rep1 was 15.40%, the T.vaginalis_Absorbance_Rep1 is 0.995, the T.vaginalis_%inb_Rep2 is 15.26% and the T.vaginalis_Absorbance_Rep2 is 0.831.
The corresponding values for `CCCCCC(=O)C(CCCC)c1oc(=O)c(CCCC)c(O)c1CCCC` (centres unmarked) [Elasnin] are 13.95%, 0.968, 11.14% and 0.774.
On the same counts, the results for `COc1cc([C@H]2[C@@]3(O)[C@H](O)[C@H]4C[C@]2(O)[C@](O)(C(=O)O4)[C@H]3C(=O)c2ccccc2)oc(=O)c1` [Enterocin] are 13.08%, 0.96, 12.38% and 0.828.
In turn, `Cc1c2c(c(O)c3c(O)cccc13)C(=O)C1(O)C(O)=C(C(N)=O)C(=O)C(N(C)C)C1C2.Cl` (centres unmarked) [Epianhydrotetracycline hydrochloride] showed a T.vaginalis_%inb_Rep1 of 8.78%, a T.vaginalis_Absorbance_Rep1 of 0.872, a T.vaginalis_%inb_Rep2 of 1.74% and a T.vaginalis_Absorbance_Rep2 of 0.644.
On the same counts, the results for `CN(C)C1C(=O)C(C(N)=O)=C(O)C2(O)C(=O)C3=C(O)c4c(O)ccc(Cl)c4C(C)(O)C3CC12.Cl` (centres unmarked) [Epichlortetracycline hydrochloride] are 7.49%, 0.848, 3.76% and 0.672.
Regarding `CN(C)C1C(=O)C(C(N)=O)=C(O)C2(O)C(=O)C3=C(O)c4c(O)cccc4C(C)(O)C3C(O)C12` (centres unmarked) [Epioxytetracycline], the T.vaginalis_%inb_Rep1 turned out to be 13.46%, the T.vaginalis_Absorbance_Rep1 came out at 0.959, the T.vaginalis_%inb_Rep2 is reported as 17.43% and the T.vaginalis_Absorbance_Rep2 is listed as 0.861.
Turning to `CC[C@H]1OC(=O)[C@H](C)[C@@H](O[C@H]2C[C@@](C)(OC)[C@@H](O)[C@H](C)O2)[C@H](C)[C@@H](O[C@@H]2O[C@H](C)C[C@H](N(C)C)[C@H]2O)[C@](C)(O)C[C@@H](C)C(=O)[C@H](C)[C@@H](O)[C@H]1C` [Erythromycin B], the T.vaginalis_%inb_Rep1 was 4.47%, the T.vaginalis_Absorbance_Rep1 came to 0.792, the T.vaginalis_%inb_Rep2 was 1.66% and the T.vaginalis_Absorbance_Rep2 was determined as 0.643.
Molecule `CCOC(=O)c1c(C)cc(O)cc1O` [Ethyl orsellinate] registered a T.vaginalis_%inb_Rep1 of 14.45%, a T.vaginalis_Absorbance_Rep1 of 0.987, a T.vaginalis_%inb_Rep2 of 11.67% and a T.vaginalis_Absorbance_Rep2 of 0.817.
The molecule `CC(=O)OC1CCC2(C)C3=C(CCC2C1(C)C)C1(C)CCC(C(C)CCC=C(C)C)C1(C)CC3` (centres unmarked) [Euphol acetate] returned a T.vaginalis_%inb_Rep1 of 13.30%, a T.vaginalis_Absorbance_Rep1 of 0.956, a T.vaginalis_%inb_Rep2 of 13.02% and a T.vaginalis_Absorbance_Rep2 of 0.8.
The corresponding values for `COc1c2c(cc3c1c(=O)c1ccccc1n3C)OCO2` [Evoxanthine] are 15.29%, 0.993, 5.42% and 0.695.
